Reference: patent US5958881A, “Composition containing VIP for injection and a method of enhancing visualization of tissues during medical procedures” (priority 1992, dated 1999)
Where two headings read alike, the source gives them in different places.

Columns and labels:
[1] = Experimental: During the period of observation, vital signs (blood pressure and pulse) and symptoms were continuously recorded. The protocol was such that if the blood pressure dropped by more than 20 mm Hg systolic or diastolic or the pulse increased by more than 30 beats per minute for 2 minutes, intravenous saline was to be administered and the study terminated.
[2] = tested on: gastrointestinal motility; details: controlled studies; cited from earlier work
[3] = in vivo; cited from earlier work
antroduodenal activity = details: 1 mg IV followed by 2 mg IV over 2 hours; cited from earlier work
opossum duodenum = details: cited from earlier work
gastroduodenal motility = details: cited from earlier work
[4] = dose dependent; cited from earlier work

Compound: CC[C@H](C)[C@H](NC(=O)[C@H](CO)NC(=O)[C@H](CC(N)=O)NC(=O)[C@H](CC(C)C)NC(=O)[C@H](Cc1ccc(O)cc1)NC(=O)[C@H](CCCCN)NC(=O)[C@H](CCCCN)NC(=O)[C@@H](NC(=O)[C@H](C)NC(=O)[C@H](CCSC)NC(=O)[C@H](CCC(N)=O)NC(=O)[C@H](CCCCN)NC(=O)[C@H](CCCN=C(N)N)NC(=O)[C@H](CC(C)C)NC(=O)[C@H](CCCN=C(N)N)NC(=O)[C@@H](NC(=O)[C@H](Cc1ccc(O)cc1)NC(=O)[C@H](CC(N)=O)NC(=O)[C@H](CC(=O)O)NC(=O)[C@@H](NC(=O)[C@H](Cc1ccccc1)NC(=O)[C@@H](NC(=O)[C@H](C)NC(=O)[C@H](CC(=O)O)NC(=O)[C@H](CO)NC(=O)[C@@H](N)Cc1c[nH]cn1)C(C)C)[C@@H](C)O)[C@@H](C)O)C(C)C)C(=O)N[C@@H](CC(C)C)C(=O)N[C@@H](CC(N)=O)C(N)=O [VIP, vasoactive intestinal peptide]
- need to terminate the study ([1]; criterion: blood pressure drop >20 mm Hg or pulse increase >30 beats per minute for 2 minutes): none of the three patients
- effects on blood pressure and pulse ([1]; first patient, higher dose level (20 ng/kg)): not seen
- effect on blood pressure and pulse ([1]; first patient, initial dose of 5 ng VIP per kg): slight decrease in systolic pressure and increase in pulse
- effect on blood pressure ([1]; gastroparetic dose): without a significant effect
- side effects of nausea and vomiting ([1]; method of the invention): free of the negative side effects of nausea and vomiting
- change in blood pressure or pulse ([1]; second patient, any of the dosages tested (5, 20, 100 ng/kg)): no significant change
- change in blood pressure or pulse ([1]; third patient, any dose of VIP administered): no significant change
- adverse reactions such as nausea or vomiting ([1]; three patients, 5-300 ng/kg IV): None of the three patients

Compound: CN1[C@@H]2CC[C@H]1C[C@@H](OC(=O)C(CO)c1ccccc1)C2 (some centres unmarked) [atropine]
- improvement in patient tolerance or facilitation of endoscopy [2]: failed to demonstrate any beneficial effects
- cardiac arrhythmias [3]: increased risk
- undesirable side effects [3]: blurred vision, headache, and urinary retention

Compound: glucagon
- cycle length and time between contractile activity in the duodenum (antroduodenal activity): significantly increased
- mean pressure period (antroduodenal activity): decreased
- effect on duodenum muscle (opossum duodenum): stimulated relaxation
- gastroduodenal motility (gastroduodenal motility; dose-dependent): variable reduction
- minimally effective dose (gastroduodenal motility; reduction in gastroduodenal motility): 0.5 mg
- dose at which nausea and vomiting can appear [4]: 1 mg
